Reference: patent publication US20140378551A1, “Composition for the Prophylactic Treatment of Neuropathic Pain” (Universite d'Auvergne, priority 2011, published 2014)
Where a name gives a salt, the structure may show the parent alone.

Experiments:
[1] = test system: Tyr^1472 residue of the NR2B sub-unit of the NMDA receptor; experiment: Chronic intrathecal treatment, phosphorylation of Tyr1472 residue in diabetes pain context; assay type: in vivo; settings: chronic treatment administered intrathecally
From the text: (§1) It is relatively better tolerated by patients.

[2] = test system: mechanical hyperalgesia induced by diabetes; experiment: Chronic intrathecal treatment, mechanical hyperalgesia induced by diabetes; assay type: in vivo; settings: chronic treatment administered intrathecally
From the text: as §1

[3] = doses of 5 to 30 mg memantine hydrochloride (Sang et al., 2002); cited from earlier work

With CC(C)(C)n1nc(-c2ccc(Cl)cc2)c2c(N)ncnc21 [PP2, 4-amino-5-(4-chlorophenyl)-7-(dimethylethyl) pyrazolo [3,4-d] pyrimidine] the “phosphorylation of the Tyr1472 residue” value [1] was “reduces phosphorylation of the Tyr^1472 residue” and the “mechanical hyperalgesia induced by diabetes” value [2] was “abolishes the mechanical hyperalgesia induced by diabetes”.

For CC12CC3CC(C)(C1)CC(N)(C3)C2 [memantine hydrochloride], the tolerance by patients [3] is listed as “well supported and tolerated by the patients”.
